# Assay results as given in US6984656B2, “Core modified porphyrins” (priority 2001, dated 2006).
# Read-outs that look alike come from different tables or passages of the source. Marks after values point to notes of the source that are not given here.
# Experiments:
# [1] = test system: Colo-26 cells; test: Dark and light-induced toxicity toward Colo-26 cells in culture; assay type: cell-based, murine; conditions: for EC50: 4 J cm^−2 of 590-800 nm light
# Procedure: In order to compare relative phototoxicity, the core-modified porphyrins of Table 1 were evaluated in culture for dark and light-induced toxicities toward Colo-26 cells, a murine colon carcinoma cell line.
# [2] = test system: two tumor cell lines; test: Phototoxicity in two tumor cell lines in vitro; assay type: cell-based
# Procedure: The topological and chemical properties of dichalcogenaporphyrins impart unexpected biological properties relative to the corresponding porphyrin derivatives. 5,10,15,20-tetrakis(4-sulfonatophenyl)-21-thiaporphyrin 8 and 21-selenaporphyrin 9 (FIG. 13) were prepared and evaluated the phototoxicity in two tumor cell lines in vitro.
# [3] = Quantum yield for the generation of singlet oxygen; assay type: physicochemical; conditions: aqueous solution
# [4] = Single-photon quantum yield for fluorescence; assay type: physicochemical; conditions: for emissiveness relative to dithiaporphyrin analogue: 7 vs 6, 10 vs DH-82; for quantum yield for fluorescence φF (± σ): one-photon, standard TPPS4 in water
# Source text: In vivo fluorescence techniques have had significant impact on the development of PDT with respect to the pharmacokinetics of sensitizers and to PDT dosimetry. Photofrin® has been used in fluorescent diagnostics and the fluorescence of TPPS4 has been extensively studied. […] The quantum yield standard used in these studies was a freshly prepared solution of TPPS4 (φF =0.12) dissolved in water.
# [5] = Rate of photobleaching in phosphate-buffered saline; assay type: physicochemical; conditions: PBS; 570-750 nm light at 500 mW cm^−2; constant initial absorbance
# Source text: One limitation of PDT dosimetry is the rate of photobleaching of the photosensitizer, which can be problematic with Photofrin® and even more problematic with the bacteriochlorins and the chlorins (such as HPPH).
# [6] = test system: R3230AC rat mammary adenocarcinoma cells; test: Phototoxicity toward R3230AC cells in culture; assay type: cell-based; conditions: 10 μM, 24 h; 570-800 nm light, 0.9 J cm^−2; 24 h post-irradiation
# Procedure: Similar results were obtained with R3230AC rat mammary adenocarcinoma cells in vitro. […] Light-treated cells and dark controls were incubated for 24 h and cell survival was determined. The surviving fraction, 24 h post-irradiation, is shown graphically in FIG. 4c.
# [7] = test system: Colo-26 tumors; test: PDT against implanted Colo-26 tumors in BALB/c mice; assay type: in vivo
# Procedure: Core-modified porphyrin 6 gave a PDT response in vivo with 694-nm light in BALB/c mice bearing Colo-26 tumors. Animals treated with photosensitizer 6 at 3.25 mg (3.0 μmol)/kg and light required 10.3±0.8 d to reach 400-mm^3 tumor volume, which was more than double the time for control animals (4.3±1.0 d) receiving neither drug nor light (P <0.01).
# The animals were irradiated 4 h post-injection with 135 J cm^−2 of 694-nm red light from a dye laser (75 mW cm^−2 for 30 min). […] For comparison purposes, BALB/C mice bearing Colo-26 tumors were given 2.5 mg (4.0 μmol)/kg of Photofrin® as a 5% aqueous dextrose solution and were irradiated 24 h later with 135 J cm^−2 of 630-nm laser light at a power of 75 mW cm^−2 for PDT with Photofrin®.
# Animals initially were given i.v. (tail vein) injections of sensitizer at various concentrations (0.05to 5.0 μmol/kg). Mice were restrained at various times thereafter without anesthesia in specially designed holders. Fischer 344 female rats were chemically restrained at various times thereafter. In both models, tumors or normal back skin were exposed to light from a xenon arc lamp with appropriate filters or to a dye laser tuned to the absorption maximum determined by in vivo reflectance measurements. Power density of delivered light typically fell in the range of 10-200 mW cm^−2 evenly distributed to a spot size of roughly 1.5 cm and measured by a radiometer. Several dose rates were explored to examine role/limitation of available oxygen on the photodynamic process. Intratumor temperatures were measured with an Omega HYP-O microthermocouple and, when necessary, a stream of nitrogen gas was used to keep intratumor temperatures below 37° C. Animals were examined and measured daily for the first 14 days post treatment and every other day thereafter until the tumors reached 400 mm^3 in mice or until the tumors double in size for Fischer 344 female rats or for 90 days. Tumor size were measured in two dimensions with a caliper. Time to 400 mm^3 or volume doubling times of tumors from control and PDT-treated groups (8-12 animals per group) were compared statistically using the SAS statistical program (SAS, Inc., Cary, N.C.). A P-value of <0.05 is considered significant. The degree of damage to the normal skin within the irradiation field also were noted. Disappearance of tumor with minimal damage to normal skin is the most desirable response. Animals are considered cured if no tumor regrowth occurs by 90 days. In all studies, three control groups were utilized in addition to the treatment group receiving both sensitizer and light: 1) a complete control receiving neither drug nor light, 2) a group receiving sensitizer only, and 3) a group receiving light only. Representative animals from each of the treatment groups were processed for histology immediately, one day, or two weeks after irradiation. Step sections through the tumor were used to define the boundaries of tumor cell damage and death as a function of distance from the skin surface.
# [8] = test system: BALB/c mice; test: Preliminary toxicity, single intravenous injection in BALB/c mice
# [9] = in vivo; cited from earlier work
# [10] = test system: mice; conditions: 150 mg/kg; cited from earlier work
# [11] = test system: BFS1 sarcoma; conditions: cited from earlier work
# [12] = 24 h incubation in dark, survival 24 h later, read-out: effective concentration to give 50% cell-kill of Colo-26 cells in vitro (EC50)
# [13] = 135 J cm^−2, DH-105 2.5, DH-82 0.13, MA-99 0.15 mg/kg, 694 nm 4 h post-injection, Photofrin® 2.5 mg/kg, 630 nm 24 h
# [14] = read-out: EC50 against Colo-26 cells
molecule,measurement,setting,value
"5,10,15,20-tetrakis(4-sulfonatophenyl)-21-thiaporphyrin [Compound 8]",EC50,[1]; [12],> 100 µM
same,phototoxicity in two tumor cell lines,[2],Neither 21-core-modified porphyrin displayed significant phototoxicity
same,quantum yield for the generation of singlet oxygen φ(^1O2),[3],0.80 ± 0.02
O=S(=O)(O)c1ccc(-c2c3nc(c(-c4ccc(S(=O)(=O)O)cc4)c4ccc([se]4)c(-c4ccc(S(=O)(=O)O)cc4)c4nc(c(-c5ccc(S(=O)(=O)O)cc5)c5ccc2[se]5)C=C4)C=C3)cc1 [Compound 7],emissiveness relative to dithiaporphyrin analogue,[4],10%
same,quantum yield for fluorescence φF (± σ),[4],8.9 (± 0.4) × 10^−4
same,EC50,[1]; [12],> 100 µM
O=S(=O)([O-])c1ccc(-c2c3nc(c(-c4ccc(S(=O)(=O)[O-])cc4)c4ccc([se]4)c(-c4ccc(S(=O)(=O)[O-])cc4)c4nc(c(-c5ccc(S(=O)(=O)[O-])cc5)c5ccc2[nH]5)C=C4)C=C3)cc1.[Na+].[Na+].[Na+].[Na+] [Compound 9],phototoxicity in two tumor cell lines,[2],Neither 21-core-modified porphyrin displayed significant phototoxicity
O=S(=O)([O-])c1ccc(-c2c3nc(c(-c4ccc(F)cc4)c4ccc(s4)c(-c4ccc(F)cc4)c4nc(c(-c5ccc(S(=O)(=O)[O-])cc5)c5ccc2[se]5)C=C4)C=C3)cc1.[Na+].[Na+] [Compound 10],emissiveness relative to dithiaporphyrin analogue,[4],2%
same,quantum yield for fluorescence φF (± σ),[4],1.4 (± 0.1) × 10^−4
same,EC50,[1]; [12],2.1 µM
same,quantum yield for the generation of singlet oxygen φ(^1O2),[3],0.65 ± 0.01
O=S(=O)([O-])c1ccc(-c2c3nc(c(-c4ccc(F)cc4)c4ccc([se]4)c(-c4ccc(F)cc4)c4nc(c(-c5ccc(S(=O)(=O)[O-])cc5)c5ccc2s5)C=C4)C=C3)cc1.[Na+].[Na+] [Compound 11],EC50,[1]; [12],1.2 µM
same,quantum yield for the generation of singlet oxygen φ(^1O2),[3],0.64 ± 0.01
O=S(=O)([O-])c1ccc(-c2c3nc(c(-c4ccc(C(F)(F)F)cc4)c4ccc(s4)c(-c4ccc(C(F)(F)F)cc4)c4nc(c(-c5ccc(S(=O)(=O)[O-])cc5)c5ccc2s5)C=C4)C=C3)cc1.[Na+].[Na+] [Compound 13],EC50,[1]; [12],> 100 µM
same,rate of photobleaching (kbleach),[5],0.13 ± 0.02 × 10^4 s^−1
CN(C)c1ccc(-c2c3nc(c(-c4ccc(S(=O)(=O)[O-])cc4)c4ccc(s4)c(-c4ccc(S(=O)(=O)[O-])cc4)c4nc(c(-c5ccc(N(C)C)cc5)c5ccc2s5)C=C4)C=C3)cc1.[Na+].[Na+] [Compound 14],quantum yield for fluorescence φF (± σ),[4],<10^−4
same,EC50,[1]; [12],0.6 µM
same,"phototoxicity relative to Photofrin® toward R3230AC cells (surviving fraction, FIG. 4c)",[6],more phototoxic than Photofrin®
same,rate of photobleaching (kbleach),[5],0.77 ± 0.04 × 10^4 s^−1
same,quantum yield for the generation of singlet oxygen φ(^1O2),[3],0.60 ± 0.02
O=C([O-])COc1ccc(-c2c3nc(c(-c4ccccc4)c4ccc(s4)c(-c4ccccc4)c4nc(c(-c5ccc(OCC(=O)[O-])cc5)c5ccc2s5)C=C4)C=C3)cc1.[Na+].[Na+] [Compound 15],EC50,[1]; [12],0.15 µM
same,rate of photobleaching (kbleach),[5],0.18 ± 0.02 × 10^4 s^−1
O=S(=O)([O-])c1ccc(-c2c3nc(c(-c4ccc(F)cc4)c4ccc([se]4)c(-c4ccc(F)cc4)c4nc(c(-c5ccc(S(=O)(=O)[O-])cc5)c5ccc2[se]5)C=C4)C=C3)cc1.[Na+].[Na+] [DH-105],fluorescence emission detected,[4],no detectable emission
same,quantum yield for fluorescence φF (± σ),[4],<10^−4
same,cures (no tumor regrowth 90 days post-treatment),[7]; [13],three cures
same,mean time to 400 mm^3 of the animals not cured,[7]; [13],17 ± 3 days
same,EC50,[1]; [14],7.9 µM
same,gross abnormalities in organs and tissues after sacrifice,"[8]; 10 mg/kg i.v., after 90 days",no gross abnormalities were noted
same,toxicity and morbidity,"[8]; 10 mg/kg, followed 90 days post-injection, normal vivarium light",neither toxicity nor morbidity was observed
same,"phototoxicity relative to Photofrin® toward R3230AC cells (surviving fraction, FIG. 4c)",[6],more phototoxic than Photofrin®
same,rate of photobleaching (kbleach),[5],1.44 ± 0.03 × 10^4 s^−1
same,quantum yield for the generation of singlet oxygen φ(^1O2),[3],0.55 ± 0.02
"CCCCCCOC(C)c1c(C)c2cc3nc(c4c5[nH]c(cc6nc(cc1[nH]2)C(C)=C6CC)c(C)c5C(=O)C4)[C@@H](CCC(=O)O)[C@@H]3C (stereo partly drawn) [HPPH, reference compound]",EC50,[1]; [14],0.3 µM
same,EC50 fold lower than for Photofrin®,"[1]; Colo-26 cells, 590-800 nm light",30 fold
"CC(=O)[O-].CC(=O)[O-].CCc1c(CC)c2cc3nc(cnc4cc(OCCOCCOCCOC)c(OCCOCCOCCOC)cc4ncc4nc(cc1[n-]2)C(CCCO)=C4C)C(C)=C3CCCO.O.[Lu+3] [Lu-Tex, lutetium texaphyrin]",skin photosensitivity,[9],minimal skin photosensitivity
"O=S(=O)(O)c1ccc(-c2c3nc(c(-c4ccc(S(=O)(=O)O)cc4)c4ccc([nH]4)c(-c4ccc(S(=O)(=O)O)cc4)c4nc(c(-c5ccc(S(=O)(=O)O)cc5)c5ccc2[nH]5)C=C4)C=C3)cc1 [TPPS4, 5,10,15,20-Tetrakis (4-sulfonato-phenyl)porphyrin, reference compound]",time to reach 400-mm^3 tumor volume,[7]; TPPS4 at 10 mg/kg,6.7 ± 1.1 days
same,toxicity at high concentrations,[10],neurotoxicity
same,EC50,[1]; [12],125 µM
same,quantum yield for the generation of singlet oxygen φ(^1O2),[3],0.71^b
O=S(=O)([O-])c1ccc(-c2c3nc(c(-c4ccc(S(=O)(=O)[O-])cc4)c4ccc(s4)c(-c4ccc(S(=O)(=O)[O-])cc4)c4nc(c(-c5ccc(S(=O)(=O)[O-])cc5)c5ccc2[nH]5)C=C4)C=C3)cc1.[Na+].[Na+].[Na+].[Na+] [sulfonated 1],efficacy in vivo relative to chlorin e6,[11]; BFS1 sarcoma-bearing mice,comparable to chlorin e6 for efficacy
O=S(=O)([O-])c1ccc(-c2c3nc(c(-c4ccc(S(=O)(=O)[O-])cc4)c4ccc([se]4)c(-c4ccc(S(=O)(=O)[O-])cc4)c4nc(c(-c5ccc(S(=O)(=O)[O-])cc5)c5ccc2[nH]5)C=C4)C=C3)cc1.[Na+].[Na+].[Na+].[Na+] [sulfonated 2],skin photosensitization,[11]; animals irradiated 24 h post-injection,no skin photosensitization was observed
benzoporphyrin derivative,duration of skin photosensitivity,[9],3 to 5 days
